# From patent US20250387359A1, “COMPOUNDS AND METHODS FOR THE TREATMENT OF PARASITIC INFECTIONS” (THE BOARD OF TRUSTEES OF THE UNIVERSITY OF ILLINOIS, priority 2019, published 2025)
# Entries after “also recorded” stand apart in the source; their conditions may differ. Where two headings read alike, the source gives them in different places.
# Key:
# [1] = target: T1, Plasmodium falciparum phosphoethanolamine methyltransferase enzyme (Plasmodium falciparum, UniProt Q8IDQ9); details: previously shown; cited from earlier work
# T1 sequence (Q8IDQ9 1-266): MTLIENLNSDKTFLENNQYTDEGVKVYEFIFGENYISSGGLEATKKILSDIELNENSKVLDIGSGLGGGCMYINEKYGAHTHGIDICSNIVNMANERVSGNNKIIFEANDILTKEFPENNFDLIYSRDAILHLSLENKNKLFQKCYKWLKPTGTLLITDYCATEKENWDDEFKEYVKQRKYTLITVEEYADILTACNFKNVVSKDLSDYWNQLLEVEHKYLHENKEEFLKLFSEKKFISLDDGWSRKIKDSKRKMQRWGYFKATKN
# Plasmodium falciparum = details: previously shown; cited from earlier work
# [2] = Compound cytotoxicity assay (WST-1) in HCT-8 cells; format: cell-based, human; details: human; HCT-8 cells, 24 h, WST-1
# Description: Compound cytotoxicity assay. […] A colorimetric assay using the cell proliferation reagent WST-1 (Roche, USA) for the quantification of cell viability was performed. […] When the cells were confluent, the old medium was replaced with fresh medium with or without varying concentrations of chemical compound. After 24 h of culture, 10 μl of the cell proliferation reagent WST-1, (for quantification of cell viability) was added to each well, mixed and the plates incubated for 1 h at 37 C with 5% CO2 in the dark. […] Molecular Devices, USA).
# C. parvum [3] = test: Histopathology of distal small intestine of C. parvum infected mice; format: in vivo, Cryptosporidium parvum; details: lower small intestine, H&E, NSC158011 400 mg/kg, NSC10447 250, 500 or 1000 mg/kg, paromomycin 100 mg/kg
# Description: In vivo testing of the anti-Cryptosporidium effect of CpLDH inhibitors. Gamma interferon knockout mice (B6.129S7-Ifng), 8 weeks of age, were purchased from Charles River, USA. The care and use of the mice was done following the guidelines of protocol number 17024 approved by the University of Illinois at Urbana-Champaign, USA. The animals were allowed to acclimatize for 1 week before experiments commenced. Stock solutions of recombinant CpLDH inhibitors reconstituted in DMSO were diluted in sterile distilled water to reduce the final amount of DMSO in the solution to less than 1% (v/v) before administering them to mice. Prior to testing the anti-Cryptosporidium effect of the inhibitors in mice, the tolerability of each inhibitor was tested by oral gavage using varying dosages (100-2000 mg/kg body weight) of each inhibitor in groups of mice (three mice for each dose) daily for 7 days. Mice were observed daily for signs of toxicity including changes from normal physical activity, respiration, body temperature, feeding, posture, fur condition or occurrence of death. […] The subsequent dosages of NSC10447 used in the mice infection assays were 250, 500 and 1000 mg/kg mouse body weight, while the NSC158011 dosages used were 100, 200 and 400 mg/kg mouse body weight. Mice were allocated to groups as follows: “Infected plus inhibitor treatment”; “Infected minus inhibitor treatment”; “Uninfected minus inhibitor treatment” and “Infected plus paromomycin treatment”. Each group contained at least three mice. Each mouse in the infection groups received 5,000 C. parvum oocysts (resuspended in 50 μl of PBS) by oral gavage. Mice were housed individually in cages lined with sterile gauze as bedding. […] An equivalent volume of PBS containing a cocktail of penicillin (100 units/ml), streptomycin (100 μg/ml), chloramphenicol (34 μg/ml) and amphotericin (0.25 μg/ml) was added to the fecal samples and stored at 4° C. until use for quantification of C. parvum genomic DNA load. […]
# Tolerability in mice = format: in vivo; details: daily oral gavage for 7 days, mice
# Description: In vivo testing of the anti-Cryptosporidium effect of CpLDH inhibitors. Gamma interferon knockout mice (B6.129S7-Ifng), 8 weeks of age, were purchased from Charles River, USA. The care and use of the mice was done following the guidelines of protocol number 17024 approved by the University of Illinois at Urbana-Champaign, USA. The animals were allowed to acclimatize for 1 week before experiments commenced. Stock solutions of recombinant CpLDH inhibitors reconstituted in DMSO were diluted in sterile distilled water to reduce the final amount of DMSO in the solution to less than 1% (v/v) before administering them to mice. Prior to testing the anti-Cryptosporidium effect of the inhibitors in mice, the tolerability of each inhibitor was tested by oral gavage using varying dosages (100-2000 mg/kg body weight) of each inhibitor in groups of mice (three mice for each dose) daily for 7 days. Mice were observed daily for signs of toxicity including changes from normal physical activity, respiration, body temperature, feeding, posture, fur condition or occurrence of death. […] An equivalent volume of PBS containing a cocktail of penicillin (100 units/ml), streptomycin (100 μg/ml), chloramphenicol (34 μg/ml) and amphotericin (0.25 μg/ml) was added to the fecal samples and stored at 4° C. until use for quantification of C. parvum genomic DNA load. […]
# C. parvum [4] = test: Real-time PCR quantification of C. parvum DNA in fecal samples of infected mice; format: in vivo, Cryptosporidium parvum
# Description: In vivo testing of the anti-Cryptosporidium effect of CpLDH inhibitors. Gamma interferon knockout mice (B6.129S7-Ifng), 8 weeks of age, were purchased from Charles River, USA. The care and use of the mice was done following the guidelines of protocol number 17024 approved by the University of Illinois at Urbana-Champaign, USA. The animals were allowed to acclimatize for 1 week before experiments commenced. Stock solutions of recombinant CpLDH inhibitors reconstituted in DMSO were diluted in sterile distilled water to reduce the final amount of DMSO in the solution to less than 1% (v/v) before administering them to mice. Prior to testing the anti-Cryptosporidium effect of the inhibitors in mice, the tolerability of each inhibitor was tested by oral gavage using varying dosages (100-2000 mg/kg body weight) of each inhibitor in groups of mice (three mice for each dose) daily for 7 days. Mice were observed daily for signs of toxicity including changes from normal physical activity, respiration, body temperature, feeding, posture, fur condition or occurrence of death. […] The subsequent dosages of NSC10447 used in the mice infection assays were 250, 500 and 1000 mg/kg mouse body weight, while the NSC158011 dosages used were 100, 200 and 400 mg/kg mouse body weight. Mice were allocated to groups as follows: “Infected plus inhibitor treatment”; “Infected minus inhibitor treatment”; “Uninfected minus inhibitor treatment” and “Infected plus paromomycin treatment”. Each group contained at least three mice. Each mouse in the infection groups received 5,000 C. parvum oocysts (resuspended in 50 μl of PBS) by oral gavage. Mice were housed individually in cages lined with sterile gauze as bedding. One day post-infection (PI), daily oral gavage administration of recombinant CpLDH inhibitor or paromomycin commenced and continued for a total of 7 days. Untreated mice received an equivalent volume of sterile distilled water (containing DMSO equivalent to the amount administered in the inhibitor-treated group) by oral gavage. Fecal pellets were collected daily from each cage and placed in individual sterile 15 ml conical tubes. An equivalent volume of PBS containing a cocktail of penicillin (100 units/ml), streptomycin (100 μg/ml), chloramphenicol (34 μg/ml) and amphotericin (0.25 μg/ml) was added to the fecal samples and stored at 4° C. until use for quantification of C. parvum genomic DNA load. Three independent replicate infection assays were performed. At 9 days PI, mice were euthanized and 5 cm of the distal small intestine resected 2 cm anterior to the cecum and immediately submerged in 4% buffered formalin. The intestinal tissues were submitted for histopathology to the Veterinary Diagnostic Laboratory at the University of Illinois at Urbana-Champaign. Briefly, intestinal tissues preserved in 4% buffered formalin were washed in 70% ethanol and embedded in 1% agar and then processed for paraffin embedding. For hematoxylin and eosin staining, five μm transverse and cross sections were cut and processed and stained following standard procedures of the Veterinary Diagnostic Laboratory. Sections were imaged using a Zeiss microscope and images captured with a color camera.
# Quantification of C. parvum shed in mice feces. Genomic DNA was extracted from individual fecal samples collected from mice at different days as described above. For each sample, 220 mg of homogenized feces were used to extract genomic DNA using the QIAamp PowerFecal DNA Kit (Qiagen, USA) following the manufacturer's instructions. Quantification of the amount of C. parvum 18s rRNA gene (GenBank accession number AF164102) was performed essentially as described previously (Int. J. Parasitol. 2018; 48(8), 649-656). Briefly, primers were used to generate a 240 bp amplicon from C. parvum genomic DNA by conventional PCR. […]
# Cryptosporidium parvum = test: In vitro anti-Cryptosporidium effect in HCT-8 cells (immunofluorescence assay); format: cell-based; details: HCT-8 cells; for IC50: Cryptosporidium parvum
# Description: In vitro testing of the anti-Cryptosporidium effect of CpLDH inhibitors. HCT-8 cells were cultured in supplemented RPMI-1640 medium in 96-well plates. When the cells were confluent, old medium was replaced with fresh medium. To one set of wells, varying concentrations of recombinant CpLDH inhibitors (reconstituted in DMSO and diluted in RPMI medium) were added, while another set was left without inhibitors. Paromomycin was used as a positive control drug reconstituted in distilled sterile water. Then, 4×10^4 freshly excysted sporozoites were added to each well and incubated at 37° C. with 5% CO2. After 2 h incubation, varying concentrations of CpLDH inhibitors were added to the set of infected cells that were not treated initially. Control infected cells without inhibitors, but with added DMSO volumes equivalent to those used in the wells with inhibitors, were included. The cells were maintained in culture for a total of either 48 h or 72 h and processed for immunofluorescence assay as previously described (Int. J. Parasitol. 2017; 47(13), 867-874). Briefly, medium was decanted, and the cells fixed with methanol-acetic acid (9:1) for 2 minutes at room temperature. The cells were rehydrated and permeabilized by two successive washes with buffer (0.1% Triton X-100, 0.35 M NaCl, 0.13 M Tris-base, pH 7.6) and blocked with 5% normal goat serum, followed by staining with antibody to C. parvum (SporoGlo; Waterborn, Inc.) overnight at 4° C. The stained cells were washed twice with PBS, followed by water, and then imaged with an inverted fluorescence microscope. Fluorescence quantification was done using ImageJ version 1.37v software (NIH). Assays were performed in triplicate and repeated at least thrice.
smiles,measurement,setting,value
S=C(CSc1ccccc1)Nc1cccc2ccccc12 [NSC158011],inhibition of catalytic activity of P. falciparum phosphoethanolamine methyltransferase,[1],inhibit the catalytic activity
same,inhibition of in vitro intracellular growth of P. falciparum,Plasmodium falciparum,inhibit in vitro intracellular growth of the parasite
same,IC50 at 24 h,[2],149 µM
same,histopathology of intestinal epithelium and villi,C. parvum [3],maintained intact intestinal mucosa and villi; also recorded: intact intestinal epithelium with prominent villi
same,highest tolerable dose (no toxicity signs),Tolerability in mice,400 mg/kg
same,efficacy lower than paromomycin,"C. parvum [4]; NSC158011 200 mg/kg, last three days of treatment",about 10 fold
same,shedding of C. parvum oocysts in mice feces,C. parvum [4]; NSC158011 400 mg/kg,significantly (P<. 0.05) reduced
same,reduction of shedding of C. parvum in mice feces vs untreated infected mice,"C. parvum [4]; NSC158011 400 mg/kg, day 7 post-infection",about 3000 fold
same,effect on parasite growth at 40 μM,"Cryptosporidium parvum; 48 h post-infection, 40 μM",blocking parasite growth almost completely
same,IC50,"Cryptosporidium parvum; 48 h, compound added at the time of infection, read-out: IC50, inhibition of C. parvum growth at 48 h p.i.",14.9 µM
same,IC50,"Cryptosporidium parvum; 72 h, compound added at the time of infection, read-out: IC50, inhibition of C. parvum growth at 72 h p.i.",15.6 µM
same,IC50,"Cryptosporidium parvum; compound added 2 h post-infection, read-out: IC50, inhibition of C. parvum growth at 48 h p.i. (2 h)",15.8 µM
same,IC50,"Cryptosporidium parvum; compound added 2 h post-infection, read-out: IC50, inhibition of C. parvum growth at 72 h p.i. (2 h)",16.5 µM
